Assay results as given in patent US20210198277A1, “AMINE-SUBSTITUTED ARYL OR HETEROARYL COMPOUNDS” (Epizyme, Inc., priority 2016, published 2021).

target: T1, EHMT2 (Homo sapiens, UniProt Q96KQ7); assay: MDA-MB-231 H3K9me2 in-cell Western assay (EHMT2 ICW); assay type: cell-based; details: H3K9me2 in-cell Western, MDA-MB-231 cells; read-out: EHMT2 ICW (IC50 μM)
T1 construct: host or cells: MDA-MB-231
T1 sequence (Q96KQ7 1-1210): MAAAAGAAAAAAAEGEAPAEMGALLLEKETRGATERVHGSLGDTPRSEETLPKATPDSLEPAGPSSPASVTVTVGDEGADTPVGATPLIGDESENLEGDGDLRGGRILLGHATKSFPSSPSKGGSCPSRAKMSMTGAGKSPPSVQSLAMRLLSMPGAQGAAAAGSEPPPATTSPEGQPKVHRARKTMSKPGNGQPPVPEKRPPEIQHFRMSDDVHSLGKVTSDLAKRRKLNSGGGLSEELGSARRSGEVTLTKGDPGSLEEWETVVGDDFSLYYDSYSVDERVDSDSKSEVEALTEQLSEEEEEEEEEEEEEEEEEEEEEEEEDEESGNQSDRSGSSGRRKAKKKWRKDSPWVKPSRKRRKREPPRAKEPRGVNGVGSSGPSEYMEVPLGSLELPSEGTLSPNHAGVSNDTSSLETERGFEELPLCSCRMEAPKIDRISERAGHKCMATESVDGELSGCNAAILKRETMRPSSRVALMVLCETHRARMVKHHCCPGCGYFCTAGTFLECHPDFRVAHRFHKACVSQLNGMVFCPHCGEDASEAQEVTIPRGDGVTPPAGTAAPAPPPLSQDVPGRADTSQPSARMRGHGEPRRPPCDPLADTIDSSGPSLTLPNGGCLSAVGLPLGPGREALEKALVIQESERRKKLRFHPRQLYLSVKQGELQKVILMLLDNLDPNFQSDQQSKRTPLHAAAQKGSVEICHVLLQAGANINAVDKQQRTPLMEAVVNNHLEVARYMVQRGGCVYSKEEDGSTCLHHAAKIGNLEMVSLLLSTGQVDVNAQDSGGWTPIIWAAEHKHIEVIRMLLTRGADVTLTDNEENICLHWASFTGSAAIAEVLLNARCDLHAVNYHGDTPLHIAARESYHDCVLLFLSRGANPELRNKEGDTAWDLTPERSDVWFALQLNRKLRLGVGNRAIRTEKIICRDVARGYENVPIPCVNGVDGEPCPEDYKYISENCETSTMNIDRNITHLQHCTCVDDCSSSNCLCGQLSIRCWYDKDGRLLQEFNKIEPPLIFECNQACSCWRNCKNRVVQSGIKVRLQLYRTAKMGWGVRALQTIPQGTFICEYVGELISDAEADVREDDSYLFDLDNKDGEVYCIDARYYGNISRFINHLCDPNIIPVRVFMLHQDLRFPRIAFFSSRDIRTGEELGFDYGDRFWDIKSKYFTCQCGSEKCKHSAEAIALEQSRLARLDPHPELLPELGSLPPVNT
Procedure, shortened: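 MDA-MB-231 cells (3,000/well) seeded onto compound, kept 30 min at room temperature, then 48 h at 37 °C, 5% CO2. IC50 from triplicate wells, four-parameter fit.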

Row | Compound | IC50 [µM]
1 | COc1cc2c(C3CCN(C)CC3)cc(C)nc2cc1OCCCN1CCCC1 [Compound 536] | 0.1 to 1
2 | CNc1cc(C2CCOCC2)c2cc(OC)c(OCCCN3CCCC3)cc2n1 [Compound 524, 6-methoxy-N-methyl-4-(oxan-4-yl)-7-[3-(pyrrolidin-1-yl)propoxy]quinolin-2-amine] | < 0.1
3 | CNc1cc(C)nc(Nc2ccc(OC)c(OC[C@@H]3CN(C)C[C@H]3O)c2)n1 [Compound 491] | 1 to 10
4 | CNc1cc(C)nc(Nc2ccc(OC)c([C@H]3C[C@@H]3CN(C)C)c2)n1 [Compound 487] | 1 to 10
5 | CNc1cc(Nc2cc(OCCCN3CC4CC4C3)c(OC)cn2)nc(C)c1F (stereo not drawn) [Compound 509] | 0.1 to 1
6 | CNc1cc(C)nc(Nc2ccc(OC)c(OC[C@H]3CCN(C4CC4)C3)c2)n1 (single isomer, unassigned) [Compound 482] | 1 to 10
7 | CCn1nc(Nc2nccc3[nH]ccc23)cc1COCCN1CCCC1 [Compound 471] | > 10
8 | CCCCNc1nccc(NC)n1 [Compound 543, N^2-butyl-N^4-methylpyrimidine-2,4-diamine] | > 10
9 | CNc1ccnc(Nc2ccc(OC)c(OCCOC3CC3)c2)n1 [Compound 453, N^2-(3-(2-cyclopropoxyethoxy)-4-methoxyphenyl)-N^4-methylpyrimidine-2,4-diamine] | > 10
10 | COc1cnc(Nc2nc(C)cc3[nH]ccc23)cc1OC[C@H]1CCN(C2CC2)C1 [Compound 494a] | 0.1 to 1
11 | CNc1cc(C)nc(Nc2ccc(OC)c([C@H]3C[C@H]3CN(C)C)c2)n1 [Compound 488] | 0.1 to 1
12 | CNc1cc(C)nc(Nc2ccc(OC)c(OC[C@H]3C[C@@H](N(C)C)C3)c2)n1 [Compound 468] | 1 to 10
13 | CNc1cc(C)nc(Nc2ccc(OC)c(OC[C@@H]3CCN(C4CC4)C3)c2)n1 (single isomer, unassigned) [Compound 481] | < 0.1
14 | COc1cnc(Nc2nc(C)cc3[nH]ccc23)cc1OC[C@@H]1CCN(C2CC2)C1 [Compound 495] | 0.1 to 1
15 | CNc1nc(C2CCN(C)CC2)c2cc(OC)c(OCCCN3CC4CC4C3)cc2n1 (stereo not drawn) [Compound 532] | 0.1 to 1
16 | CNc1ccnc(Nc2ccc(OC)c(OCc3nnc(C4CC4)[nH]3)c2)n1 [Compound 478] | > 10
17 | CNc1cc(C)nc(Nc2ccc(OC)c(OCC3CCN(C4CC4)C3)c2)n1 (stereo not drawn) [Compound 457] | < 0.1
18 | COc1cc2c(C3CCN(C)CC3)nc(NC3CCCC3)nc2cc1OCCCN1CCCC1 [Compound 529] | 0.1 to 1
19 | CNc1nc(C2CCCC2)c2cc(OC)c(OCCCN3CCCC3)cc2n1 [Compound 518, 4-cyclopentyl-6-methoxy-N-methyl-7-(3-(pyrrolidin-1-yl)propoxy)quinazolin-2-amine] | 1 to 10
20 | CNc1cc(Nc2cc(OC[C@@H]3CCN(C)C3)c(OC)cn2)nc(C)n1 [Compound 473] | 1 to 10
21 | CNc1cc(C)nc(Nc2cc(OC[C@@H]3CCN(C)C3)c(OC)cn2)c1 [Compound 475] | 0.1 to 1
22 | CNc1nc(C2CCCCC2)c2cc(OC)c(OCCCN3CCCC3)cc2n1 [Compound 523, 4-cyclohexyl-6-methoxy-N-methyl-7-(3-(pyrrolidin-1-yl)propoxy)quinazolin-2-amine] | 1 to 10
23 | CNc1ccnc(Nc2ccc(OC)c(OC[C@@H]3CN(C)C[C@@H]3C)c2)n1 [Compound 477] | 1 to 10
24 | CNc1cc(C)nc(Nc2ccc(OC)c(OC3CCN(C4CC4)CC3)c2)n1 [Compound 466, N^2-(3-((1-cyclopropylpiperidin-4-yl)oxy)-4-methoxyphenyl)-N^4,6-dimethylpyrimidine-2,4-diamine] | > 10
25 | CNc1cc(C)nc(Nc2ccc(OC)c(OC[C@@H]3CN(C)C[C@@H]3O)c2)n1 [Compound 492] | 0.1 to 1
26 | CNc1nc(C2CCN(C(C)C)CC2)c2cc(OC)c(OCCCN3CCCC3)cc2n1 [Compound 530] | 1 to 10
27 | CNc1cc(C)nc(Nc2ccc(OC)c(OC[C@H]3C[C@H](N(C)C)C3)c2)n1 [Compound 470] | > 10
28 | CNc1nc(C2CCN(CCO)CC2)c2cc(OC)c(OCCCN3CCCC3)cc2n1 [Compound 533] | 0.1 to 1

Further lines, results first:

Row | IC50 [µM] | Compound
29 | < 0.1 | CNc1cc(C)nc(Nc2ccc(OC)c(OCCCN3CCC3)c2)n1 [Compound 490]
30 | 0.1 to 1 | CCc1ccc(Nc2nc(C)cc(NC)n2)cc1OCCCN1CCCC1 [Compound 497]
31 | 0.1 to 1 | CNc1cc(C)nc(Nc2ccc(OC)c(OCC3CCN(CCO)C3)c2)n1 (stereo not drawn) [Compound 461, 2-(3-((2-methoxy-5-((4-methyl-6-(methylamino)pyrimidin-2-yl)amino)phenoxy)methyl)pyrrolidin-1-yl)ethan-1-ol]
32 | 1 to 10 | COc1cnc(Nc2cc(NCC3CCOCC3)cc(C)n2)cc1OCCCN1CCCC1 [Compound 464, N^2-(5-methoxy-4-(3-(pyrrolidin-1-yl)propoxy)pyridin-2-yl)-6-methyl-N^4-((tetrahydro-2H-pyran-4-yl)methyl)pyridine-2,4-diamine]
33 | 1 to 10 | CNc1cc(C)nc(Nc2cnc(C3CC3)c(OCCCN3CCCC3)c2)n1 [Compound 516]
34 | 0.1 to 1 | CNc1cc(C(C)C)nc(Nc2ccc(OC)c(OCCCN3CCCC3)c2)n1 [Compound 483]
35 | > 10 | COc1ccc(Nc2nc(C)cc3[nH]ccc23)cc1OCCCN1CCCC1 [Compound 486]
36 | 1 to 10 | CCc1ncc(Nc2nc(C)cc(NC)n2)cc1OCCCN1CCCC1 [Compound 515]
37 | 0.1 to 1 | CNc1cc(C)nc(Nc2ccc(OC)c(OCC3CCCN(C4CC4)C3)c2)n1 (stereo not drawn) [Compound 517a]
38 | 0.1 to 1 | CNc1cc(C)nc(Nc2cnc(OC)c(OCCCN3CC4CC4C3)c2)n1 (stereo not drawn) [Compound 514]
39 | > 10 | CNc1cc(C2CCOCC2)nc(Nc2ccc(OC)c(OCCCN3CCCC3)c2)n1 [Compound 459, N^2-(4-methoxy-3-(3-(pyrrolidin-1-yl)propoxy)phenyl)-N^4-methyl-6-(tetrahydro-2H-pyran-4-yl)pyrimidine-2,4-diamine]
40 | > 10 | CNc1cc(C)nc(Nc2ccc(OC)c(OCCC3CN(C)C3)c2)n1 [Compound 508]
41 | 0.1 to 1 | COc1cnc(Nc2nc(C)cc3[nH]ncc23)cc1OCCCN1CCCC1 [Compound 460, N-(5-methoxy-4-(3-(pyrrolidin-1-yl)propoxy)pyridine-2-yl)-6-methyl-1H-pyrazolo[4,3-c]pyridine-4-amine]
42 | 0.1 to 1 | CNc1cc(C)nc(Nc2ccc(OC)c(OCCCN3CC4CC4C3)c2)n1 (stereo not drawn) [Compound 506]
43 | 1 to 10 | CNc1cc(C)nc(Nc2cc(Cl)c(OC)c(OCCCN3CCCC3)c2)n1 [Compound 496]
44 | 0.1 to 1 | CNc1cc(C)nc(Nc2ccc(OC)c(OCCCN(C)C3CC3)c2)n1 [Compound 463, N^2-(3-(3-(cyclopropyl(methyl)amino)propoxy)-4-methoxyphenyl)-N^4,6-dimethylpyrimidine-2,4-diamine]
45 | < 0.1 | CNc1cc(C)nc(Nc2cnc(OC)c(OC[C@@H]3CCN(C4CC4)C3)c2)n1 [Compound 512]
46 | 1 to 10 | CNc1cc(C)nc(Nc2ccc(OC)c(OCCC3CCN(C)C3)c2)n1 (stereo not drawn) [Compound 503]
47 | 0.1 to 1 | CNc1cc(C)nc(Nc2ccc(OC)c(OCCCN3CC(O)C3)c2)n1 [Compound 465, 1-(3-(2-methoxy-5-((4-methyl-6-(methylamino)pyrimidin-2-yl)amino)phenoxy)propyl)azetidin-3-ol]
48 | 1 to 10 | CNc1nc(C2=CCOCC2)c2cc(OC)c(OCCCN3CCCC3)cc2n1 [Compound 522]
49 | 0.1 to 1 | CNc1cc(C)nc(Nc2ccc(OC)c(OCCCN3CCCC3C)c2)n1 (stereo not drawn) [Compound 504, N^2-(4-methoxy-3-(3-(2-methylpyrrolidin-1-yl)propoxy)phenyl)-N^4,6-dimethylpyrimidine-2,4-diamine]

same assay, conditions: Table VII; read-out: EHMT2 ICW IC50

Row | Compound | IC50 [µM]
50 | CNc1cc(C)nc(Nc2ccc(OC)c(OC[C@H](O)CN(C)C)c2)n1 [Compound 1112] | 1 to 10
51 | CNc1cc(C)nc(Nc2ccc(C)c(C(=O)NCc3ccon3)c2)n1 [Compound 1114] | > 10

The remaining lines, values ahead:

Row | IC50 [µM] | Compound
52 | 0.1 to 1 | CNc1cc(C)nc(Nc2ccc(OC)c(OC[C@H](O)CN3CCCC3)c2)n1 [Compound 1045]
53 | 0.1 to 1 | CNc1cc(C)nc(Nc2ccc(OC)c(OC[C@@H](O)CN3CCCC3)c2)n1 [Compound 1044]
54 | 1 to 10 | CNc1cc(C)nc(Nc2ccc(OC)c(CNCCNC3CCC3)c2)n1 [Compound 1109]
